Laboratory results from PubChem BioAssay AID248 (DTP/NCI, 2004).
Several values for one entry are separate records, joined by “and”; a condition that tells them apart may be missing. Equal values may be shown once. Inconclusive results and toxic doses are left out. Cut-off read from the data, not from the text of the source: active = T/C of 150% or more; inactive = T/C below 125%.

Test system: L1210 leukemia ip in BDF1 mice, survival T/C
Test: NCI In Vivo Anticancer Drug Screen. Data for tumor model L1210 Leukemia (intraperitoneal) in B6D2F1 (BDF1) mice
Conditions: endpoint: mean survival time, higher = longer survival
Summary of the method: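 Ratio derived from survival: compound-dosed mice over vehicle-dosed mice, all bearing a transplantable tumor.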

[1] = dose: 100.0 mg/kg/injection, schedule: Q01DX001 (ip), vehicle: carboxymethylcellulose (CMC)
[2] = dose: 200.0 mg/kg/injection, schedule: Q01DX001 (ip), vehicle: carboxymethylcellulose (CMC)
[3] = dose: 400.0 mg/kg/injection, schedule: Q01DX001 (ip), vehicle: carboxymethylcellulose (CMC)
[4] = dose: 100.0 mg/kg/injection, schedule: Q04DX003 (ip), vehicle: saline with Tween-80
[5] = dose: 200.0 mg/kg/injection, schedule: Q04DX003 (ip), vehicle: saline with Tween-80
[6] = dose: 400.0 mg/kg/injection, schedule: Q04DX003 (ip), vehicle: saline with Tween-80
[7] = dose: 100.0 mg/kg/injection, schedule: Q01DX001 (ip), vehicle: saline
[8] = dose: 200.0 mg/kg/injection, schedule: Q01DX001 (ip), vehicle: saline
[9] = dose: 400.0 mg/kg/injection, schedule: Q01DX001 (ip), vehicle: saline
[10] = dose: 100.0 mg/kg/injection, schedule: Q04DX002 (ip), vehicle: Klucel (hydroxypropylcellulose) (HPC)
[11] = dose: 200.0 mg/kg/injection, schedule: Q04DX002 (ip), vehicle: Klucel (hydroxypropylcellulose) (HPC)
[12] = dose: 400.0 mg/kg/injection, schedule: Q04DX002 (ip), vehicle: Klucel (hydroxypropylcellulose) (HPC)
[13] = dose: 100.0 mg/kg/injection, schedule: Q04DX003 (ip), vehicle: saline
[14] = dose: 200.0 mg/kg/injection, schedule: Q04DX003 (ip), vehicle: saline
[15] = dose: 400.0 mg/kg/injection, schedule: Q04DX003 (ip), vehicle: saline
[16] = dose: 25.0 mg/kg/injection, schedule: Q04DX002 (ip), vehicle: Klucel (hydroxypropylcellulose) (HPC)
[17] = dose: 50.0 mg/kg/injection, schedule: Q04DX002 (ip), vehicle: Klucel (hydroxypropylcellulose) (HPC)
[18] = dose: 100.0 mg/kg/injection, schedule: Q01DX009 (ip), vehicle: saline with Tween-80
[19] = dose: 200.0 mg/kg/injection, schedule: Q01DX009 (ip), vehicle: saline with Tween-80
[20] = dose: 25.0 mg/kg/injection, schedule: Q04DX003 (ip), vehicle: saline
[21] = dose: 50.0 mg/kg/injection, schedule: Q04DX003 (ip), vehicle: saline
[22] = dose: 100.0 mg/kg/injection, schedule: Q01DX009 (ip), vehicle: Klucel (hydroxypropylcellulose) (HPC)
[23] = dose: 200.0 mg/kg/injection, schedule: Q01DX009 (ip), vehicle: Klucel (hydroxypropylcellulose) (HPC)
[24] = dose: 400.0 mg/kg/injection, schedule: Q01DX009 (ip), vehicle: Klucel (hydroxypropylcellulose) (HPC)

Measured: T/C

COC1CCC2CC3(CCC2(C)C1O)OCCO3 (stereo unspecified)
inactive: [1] 100 % of control | [2] 105 % of control | [3] 97 % of control

CCCCCCCCNC(=O)C1OC(n2cnc3c(N)ncnc32)C2OC(C)(C)OC12 (stereo unspecified)
inactive: dose: 100.0 mg/kg/injection, schedule: Q01DX005 (ip), vehicle: saline with Tween-80 94 % of control | dose: 200.0 mg/kg/injection, schedule: Q01DX005 (ip), vehicle: saline with Tween-80 102 % of control

COC(=O)c1ccc([N+](=O)[O-])cc1O
inactive: [4] 101 % of control | [5] 102 % of control | [6] 104 % of control

CC(Cl)CNC(C)C (stereo unspecified)
inactive: [7] 103 % of control | [8] 92 % of control | [9] 103 % of control

COc1ccc(/C(=N\O)C(C)=O)cc1OC
inactive: [10] 103 % of control | [11] 103 % of control | [12] 91 % of control

CCCCCC(C)C(=O)CCCC (stereo unspecified) (tested in a mixture with another compound)
inactive: [4] 106 % of control | [5] 97 % of control | [6] 86 % of control

O=C1c2cscc2C(=O)c2sccc21
inactive: dose: 100.0 mg/kg/injection, schedule: Q01DX001 (ip), vehicle: saline with Tween-80 100 % of control | dose: 200.0 mg/kg/injection, schedule: Q01DX001 (ip), vehicle: saline with Tween-80 102 % of control | dose: 400.0 mg/kg/injection, schedule: Q01DX001 (ip), vehicle: saline with Tween-80 96 % of control

CN(C)C=NCC1CCCO1 (stereo unspecified)
inactive: [7] 97 % of control | [8] 90 % of control | [9] 97 % of control

Cc1ccc(S(=O)(=O)NC(=O)NC2CCCCC2)cc1
inactive: [13] 88 % of control | [14] 93 % of control | [15] 104 % of control

Cc1ccc(NC(=S)NCCO)cc1C
inactive: [4] 98 % of control | [5] 98 % of control | [6] 97 % of control

CCOC(=O)/C(C#N)=C/c1ccc2n1Cc1cc(OC)c(OC)cc1N(C(C)=O)C2
inactive: [16] 95 % of control | [17] 93 % of control | [10] 87 % of control

CCCNC(=O)Nc1cccc(C(F)(F)F)c1
inactive: [18] 100 % of control | [4] 100 % of control | [19] 97 % of control | [5] 97 % of control | dose: 400.0 mg/kg/injection, schedule: Q01DX009 (ip), vehicle: saline with Tween-80 88 % of control | [6] 106 % of control

O=C(/C=C/c1ccccc1)N/N=C/c1ccccc1Cl
inactive: [17] 108 % of control | [10] 100 % of control and 116 % of control | [11] 111 % of control | [12] 101 % of control and 110 % of control

CC(C)(C)Nc1ccc(C#N)cc1
inactive: dose: 12.5 mg/kg/injection, schedule: Q04DX002 (ip), vehicle: Klucel (hydroxypropylcellulose) (HPC) 97 % of control | [16] 94 % of control | [17] 87 % of control

C=C(Cl)CO
inactive: [20] 118 % of control | [21] 89 % of control

CN(C)c1ccc(C(=O)C#N)cc1
inactive: [22] 100 % of control | [23] 108 % of control | [24] 100 % of control

c1ccc2c(OCC3CO3)cccc2c1 (stereo unspecified)
inactive: dose: 50.0 mg/kg/injection, schedule: Q01DX001 (ip), vehicle: other 94 % of control | dose: 100.0 mg/kg/injection, schedule: Q01DX001 (ip), vehicle: other 94 % of control | dose: 200.0 mg/kg/injection, schedule: Q01DX001 (ip), vehicle: other 94 % of control | dose: 400.0 mg/kg/injection, schedule: Q01DX001 (ip), vehicle: other 111 % of control

c1ccc([P+]2(c3ccccc3)CC[P+](c3ccccc3)(c3ccccc3)CC2)cc1
inactive: dose: 9.5 mg/kg/injection, schedule: Q01DX001 (ip), vehicle: saline 103 % of control | dose: 19.0 mg/kg/injection, schedule: Q01DX001 (ip), vehicle: saline 101 % of control | dose: 38.0 mg/kg/injection, schedule: Q01DX001 (ip), vehicle: saline 97 % of control | dose: 75.0 mg/kg/injection, schedule: Q01DX001 (ip), vehicle: saline 100 % of control

Cc1cc(C)c(C(C)(CS(C)(=O)=O)CS(C)(=O)=O)c(C)c1C(C)(CS(C)(=O)=O)CS(C)(=O)=O
inactive: [22] 105 % of control | [23] 102 % of control | [24] 105 % of control

CC[n+]1c(COCCOc2ccccc2)sc2cc3c(cc21)OCO3
inactive: [7] 101 % of control

COc1ccc(C)cc1NC(=O)OCCOc1ccc([N+](=O)[O-])cc1
inactive: dose: 50.0 mg/kg/injection, schedule: Q01DX009 (ip), vehicle: saline with Tween-80 93 % of control | [18] 97 % of control | [19] 93 % of control

O=C(Nc1ccc(S(=O)(=O)NC2CCCCC2)cc1)OC1CCCCC1
inactive: [7] 92 % of control | [8] 90 % of control | [9] 94 % of control

CCCCN1CCN2C(=O)N(CC)CCC2C1 (stereo unspecified)
inactive: [20] 91 % of control | [21] 98 % of control | [7] 102 % of control | [13] 116 % of control

O=C1C=C(N2CC2)C(=O)C=C1N1CC1
inactive: dose: 0.62 mg/kg/injection, schedule: Q01DX001 (ip), vehicle: other 105 % of control | dose: 1.25 mg/kg/injection, schedule: Q01DX001 (ip), vehicle: other 117 % of control | dose: 2.5 mg/kg/injection, schedule: Q01DX001 (ip), vehicle: other 107 % of control

CCCCC(=O)N/N=C\c1ccc(OCc2ccccc2)cc1
inactive: [7] 87 % of control | [8] 92 % of control | [9] 87 % of control

CC1([N+](=O)[O-])COP(=O)(OP2(=O)OCC(C)([N+](=O)[O-])CO2)OC1 (stereo unspecified)
inactive: [1] 108 % of control | [2] 101 % of control | [3] 103 % of control

Cc1ccc(C(=O)C(Br)C(Br)c2ccc(C)cc2)cc1 (stereo unspecified)
inactive: dose: 100.0 mg/kg/injection, schedule: Q01DX001 (ip), vehicle: Klucel (hydroxypropylcellulose) (HPC) 105 % of control | [22] 96 % of control | dose: 200.0 mg/kg/injection, schedule: Q01DX001 (ip), vehicle: Klucel (hydroxypropylcellulose) (HPC) 99 % of control | [23] 91 % of control | dose: 400.0 mg/kg/injection, schedule: Q01DX001 (ip), vehicle: Klucel (hydroxypropylcellulose) (HPC) 94 % of control | [24] 95 % of control

Nc1ccc(C(=O)Nc2ccc(Nc3ccncc3)cc2)c([N+](=O)[O-])c1
inactive: dose: 100.0 mg/kg/injection, schedule: Q01DX009 (ip), vehicle: saline 97 % of control | [13] 100 % of control | dose: 200.0 mg/kg/injection, schedule: Q01DX009 (ip), vehicle: saline 104 % of control | [14] 96 % of control | dose: 400.0 mg/kg/injection, schedule: Q01DX009 (ip), vehicle: saline 106 % of control | [15] 100 % of control

O=C(Nc1ccc(S(=O)(=O)F)cc1[N+](=O)[O-])c1ccc2ccccc2c1O
inactive: [22] 104 % of control | [23] 96 % of control | [24] 93 % of control
